According to paper PMC4941764, “Identification of 4-aminoquinoline core for the design of new cholinesterase inhibitors” (PeerJ, 2016):

Molecular target: T1, acetylcholinesterase (eeAChE) (Electrophorus electricus, UniProt O42275)
T1 construct: gene ache
Test: Ellman assay, single concentration ([…])
Assay type: biochemical

T1 sequence (O42275 24-633): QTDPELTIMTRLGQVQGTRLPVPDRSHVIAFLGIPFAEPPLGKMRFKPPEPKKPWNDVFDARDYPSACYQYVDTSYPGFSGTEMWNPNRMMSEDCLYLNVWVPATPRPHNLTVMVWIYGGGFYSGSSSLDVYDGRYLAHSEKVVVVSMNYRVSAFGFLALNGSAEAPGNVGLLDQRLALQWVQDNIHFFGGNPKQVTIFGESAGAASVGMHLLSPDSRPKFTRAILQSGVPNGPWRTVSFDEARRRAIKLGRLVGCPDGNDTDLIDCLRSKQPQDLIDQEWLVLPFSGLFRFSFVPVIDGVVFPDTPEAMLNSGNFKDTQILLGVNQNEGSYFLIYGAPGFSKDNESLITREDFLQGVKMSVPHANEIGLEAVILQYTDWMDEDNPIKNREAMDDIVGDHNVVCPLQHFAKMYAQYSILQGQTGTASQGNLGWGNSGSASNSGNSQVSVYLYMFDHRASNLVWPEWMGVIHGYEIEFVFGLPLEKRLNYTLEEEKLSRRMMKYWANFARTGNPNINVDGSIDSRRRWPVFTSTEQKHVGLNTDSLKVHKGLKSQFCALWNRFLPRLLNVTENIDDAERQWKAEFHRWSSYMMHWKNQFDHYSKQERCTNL

Molecule `Nc1ccnc2ccccc12` [compound 03, 4-aminoquinoline] has an inhibition at 10 µM of 68.3 ± 1.83%.
